# Assay results as given in patent US20090170131A1, “Agents for Imaging Apoptosis” (priority 2006, published 2009).
# Tests used:
# caspase-3 = target: T1, caspase-3 (Homo sapiens, UniProt P42574); test: AMC-M808 cleavage in DLD1 colon carcinoma cells after TRAIL treatment, time-lapse confocal fluorescence; format: cell-based
# T1 construct: In DLD1 colon carcinoma cells in vitro; endogenous in cells; host or cells: DLD1 colon carcinoma cells
# T1 sequence (P42574 29-175 limits assumed): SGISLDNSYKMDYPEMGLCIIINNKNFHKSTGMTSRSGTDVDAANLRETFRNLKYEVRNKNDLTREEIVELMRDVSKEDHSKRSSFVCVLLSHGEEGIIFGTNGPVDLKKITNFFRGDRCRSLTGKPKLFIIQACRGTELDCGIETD
# T1 sequence (P42574 176-277 limits assumed): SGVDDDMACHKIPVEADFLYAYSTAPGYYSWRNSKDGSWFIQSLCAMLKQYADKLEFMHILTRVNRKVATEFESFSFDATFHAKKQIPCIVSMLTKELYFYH
# Protocol: FIG. 1 is an image of AMC fluorescence from an imaging agent in DLD1 colon carcinoma cells before (A) and after 2 hour treatment with TNF-related apoptosis-inducing ligand (TRAIL) (B).
# DLD1 cells were seeded in an 8-chamber glass slide at a density of 2×10^4 cells/cm^2 in DMEM containing 10% FBS and allowed to attach overnight. Fluorescent images of the plated cells were acquired using an Olympus FV1000 confocal microscope equipped with an onstage incubation chamber. TRAIL was added to the cells in a 0.5 mL volume of fresh medium at a concentration of 50 ng/mL. Time-lapse microscopy was then immediately initiated with confocal images acquired at a rate of one image every 10 minutes. The cells were maintained at 37° C. in 5% CO2 for the duration of the experiment. An excitation wavelength of 405 nm and an emission wavelength range of 425 to 475 nm were used to detect the cleaved product of AMC-M808. Fluorescence intensity over time was measured in a representative region-of-interest in each 10-minute image acquired to determine the rate of caspase activity.
# caspases = details: cell cultures containing 23% apoptotic cells; cited from earlier work
cleavage by caspase-3 after induction of apoptosis (caspase-3; DLD1 cells treated with TRAIL),"rate of increase in fluorescence intensity due to AMC-M808 cleavage (caspase-3; DLD1 cells, after TRAIL 50 ng/mL, first hour, region of interest in 10 minute frames) [min⁻¹]",cell permeability (caspase-3; DLD1 colon carcinoma cells in vitro),Molecule,uptake in cell cultures (caspases)
cleaved by caspase-3,5.5,cell permeable,COc1ccccc1CC(=O)NC(C(=O)NC(CC(=O)OCc1ccccc1)C(=O)Nc1ccc2c(C)cc(=O)oc2c1)C(C)C (stereo not shown) [Compound 3],–
–,–,–,radioiodinated Z-Val-Ala-DL-Asp(O-methyl)-fluoromethyl ketone [[^131I]IZ-VAD-fmk],some increase in uptake
